Source: EP4759817A1, “HETEROARYL COMPOUND, PREPARATION METHOD THEREFOR, AND USE THEREOF IN MEDICINE” (Jiangsu Hengrui Pharmaceuticals Co., Ltd., priority 2023, dated 2025)

Columns and labels:
[1] = system: HCT116 MTAP-/- cells; test: HCT116 MTAP-/- cell proliferation assay (CellTiter-Glo, 10 days); assay type: cell-based; conditions: growth inhibition, CTG assay Day 10
Description: (§1) • I. Experimental materials and instruments • 1. HCT116 cell line (Nanjing Kebai Biotechnology Co., Ltd., CBP60028) • 2. HCT116 MTAP-/- cell line (Nanjing Kebai Biotechnology Co., Ltd., CBP75002) • 3. DMSO (Sigma, D2650) • 4. McCoy's 5A medium (Gibco, 16600-082) • 5. Foetal bovine serum (FBS) (Gibco, 10091148) • 6. Phosphate buffered saline (DPBS) pH 7.4 (Gibco, 14190-144) • 7. Pen strep (PS) (Gibco, 15140-122) • 8. 0.25% Typsin-EDTA (1×) (Gibco, 25200-072) • 9. CellTiter-Glo® Luminescent Cell Viability Assay (Promega, G7572) • 10. 96-well round-bottom plate (JET, TCP002096) • 11. 96-well black clear bottom plate (Hangzhou Xinyou Biotechnology Co., Ltd., 060096) • 12. 1.2 mL 96-well deep well plate, clear, sterile, square-well, V-bottom (Titan, 02089063) • 13. 15-mL centrifuge tube (Titan) • 14. Biosafety cabinet (Thermo, 1300AII) • 15. Cell counter (Countstar, IC1000) • 16. Incubator (Thermo, I160) • 17. Centrifuge (Beckman coulter, Allegra X-12 centrifuge) • 18. PHERAstar FS microplate reader (BMG Labtech) • II. Experimental procedure • 1. Cell plating (Day 0) • a) The cell morphology was observed under a microscope to ensure confluence reached approximately 90%. • b) The cell supernatant was aspirated, the cells were washed once with PBS, and then the PBS was removed; and the cells were digested by adding an appropriate amount of trypsin, and left to stand at 37°C for 3 minutes. • c) The digestion was terminated by adding an equal volume of McCoy's 5A medium containing 10% FBS, and the cell suspension was collected and centrifuged at 300 g for 3 minutes; and the cells were resuspended in an appropriate amount of fresh medium. • d) The resuspended cell suspension was taken for counting. • e) The cell suspension was diluted to 1e4/mL using McCoy's 5A medium containing 10% FBS, and seeded at 50 µL per well, corresponding to 500 cells/well for HCT116 and 500 cells/well for HCT116 MTAP-/-. • f) The cell plate was placed in a 37°C, 5% carbon dioxide incubator and incubated overnight. • 2. Compound treatment (Day 1) • a) Each compound was serially diluted in DMSO to generate a 9-point concentration gradient (starting concentration: 10000 µM, 3-fold dilution; the highest concentration may be adjusted individually based on IC50 of different compounds); for example, in a 96-well round-bottom compound-dilution plate, 5 µL of the compound was sequentially diluted into 10 µL of DMSO. • b) Each concentration point of every compound was then diluted 250-fold into the corresponding volume of McCoy's 5A medium. • c) To each cell plate, 50 µL of the diluted compound solution as described above was added sequentially to the cell supernatant (50 µL/well). • d) The compound-treated cell plate was placed in a 37°C, 5% carbon dioxide incubator and incubated. • 3. Re-digestion, re-plating and compound treatment (Day 5) • a) After 5 days of compound treatment, the compound-containing medium was aspirated, and the cells were rinsed once with PBS (100 µL/well); and the PBS was removed immediately. • b) The cells were digested by adding 25 µL of trypsin and incubated at 37°C for 3 minutes, and then the digestion was terminated by adding 175 µL/well of McCoy's 5A medium containing 10% FBS. • c) The cells were mixed thoroughly using a pipette, and re-plated at 1 : 20; and specifically, 10 µL of the cell suspension was aspirated to a new 96-well plate (pre-filled with 40 µL of McCoy's 5A medium containing 10% FBS. • d) Compounds were prepared and added according to steps a) to c) in Section 2, with 50 µL added per well. • e) The compound-treated cell plate was placed in a 37°C, 5% carbon dioxide incubator and incubated. • 4. […]

[2] = target: T1, Recombinant human PRMT5: MEP50 protein (Homo sapiens, UniProt O14744); test: Inhibitory activity against human PRMT5 enzymatic activity (HTRF quantification of SAH, +MTA); assay type: biochemical; conditions: +1 µM MTA; histone H4 peptide substrate (1-21), SAM; 37°C 120 min
T1 construct: purchased active motif 31521
Experimental: • 1. Recombinant human PRMT5: MEP50 protein (active motif, 31521) • 2. EPIgeneous Methyltransferase kit (cisbio, 62SAHPEH) • 3. 96-well plate (Sangon Biotech, F610960-0010) • 4. 384-well white plate (Perkin Elmer, 6007290) • 5. 1 M Tris-HCl [pH 8.5] (Sangon Biotech, B548141) • 6. Histone H4 peptide substrates (1-21) (BPS bioscience, 52014) • 7. 5'-deoxy-5'-(methylthio)adenosine (Aladdin, D168979-25 mg) • 8. Tween-20 (Sangon Biotech, A100777-0500) • 9. DMSO (Sigma, D2650) • 10. Incubator (Shanghai Boxun Medical Biological Instrument Corp.) • 11. PHERAstar FS microplate reader (BMG Labtech)
PRMT5 can induce the transfer of a methyl group from S-adenosylmethionine (SAM) to a histone H4 peptide substrate (1-21), generating S-adenosylhomocysteine (SAH). In this experiment, the amount of SAH produced in the reaction is quantified using a Homogeneous Time-Resolved Fluorescence (HTRF) method to evaluate the inhibitory activity of compounds against PRMT5 enzymatic activity.
The sample diluent containing (or not containing) 1 µM 5 '-deoxy-5' - (methylthiyl) adenosine (MTA) was prepared using the EPIgeneous Diluent Buffer from the EPIgeneous Methyltransferase kit. With reference to the instructions, SAM and SAH standards were serially diluted and dispensed at 10 µL per well (in duplicate for each concentration). 2 µL of EPIgeneous Detection Buffer 1 was added to each well, and the plate was centrifuged, shaken to mix thoroughly, and placed at room temperature for 10 min. The SAH d2 Reagent was diluted 32-fold with EPIgeneous Detection Buffer 2, and 4 µL of the diluted SAH-d2 solution was added to each well. The plate was centrifuged and shaken for 2 min to mix thoroughly. The SAH Tb Cryptate Antibody was diluted 50-fold in EPIgeneous Detection Buffer 2. 4 µL of the diluted Tb Cryptate Antibody solution was added to each well, and the plate was centrifuged, shaken for 2 min to mix thoroughly, and left to stand at room temperature for 60 min, followed by reading on a PHERAstar FS microplate reader to obtain the 665/620 ratio. Plotting SAH concentration against the ratio to generate an x-y curve yields a corresponding calculation formula.
Reaction buffer (1×): 50 mM Tris-HCl [pH 8.5], 1 mM DTT, 0.005% Tween-20.
Compound preparation: a 20 mM solution of test compound in 100% DMSO was diluted in 100% DMSO to 1 mM as the highest concentration, and the solution at this concentration was then subjected to a 10-point, 3-fold serial dilution in 100% DMSO in a 96-well plate. Wells containing 100% DMSO served as the blank control. The above-described serially diluted compounds and the 100% DMSO were diluted 20-fold with the reaction buffer to prepare 5× compound solutions, which were mixed thoroughly for use.
The PRMT5:MEP50 was diluted in the reaction buffer to a final concentration of 12.5 nM. Then, 4 µL of the 12.5 nM PRMT5:MEP50 solution was added to each well of a 384-well plate. Wells containing 4 µL of the reaction buffer served as the negative control wells. 2 µL of the 5× compound solution was added to each well. For the negative control wells (no enzyme, no compound) and the positive control wells (no compound), 2 µL of 5% DMSO was added. The plate was sealed with a membrane, centrifuged, shaken for 2 min to mix thoroughly, and placed at room temperature for 20 min.
Preparation of substrate mixture solution: The substrate mixture solution containing 1.5 µM histone H4 peptide substrate (1-21) and 2.5 µM SAM, or 1.5 µM histone H4 peptide substrate (1-21), 2.5 µM SAM and 2.5 µM MTA was prepared in the reaction buffer.
The reaction was initiated by adding 4 µL of the substrate mixture solution (-/+ MTA) to each well. The plate was sealed with a membrane, centrifuged, shaken for 2 min to mix thoroughly, and incubated at 37°C for 120 min in a constant temperature incubator.
Detection: The detection was performed by using the EPIgeneous Methyltransferase kit. […]

[3] = system: HCT116 cells; test: HCT116 cell proliferation assay (CellTiter-Glo, 10 days); assay type: cell-based; conditions: growth inhibition, CTG assay Day 10
Description: as §1, with “3.” for “3. Re-digestion, re-plating and compound treatment (Day 5) • a) After 5 days of compound treatment, the compound-containing medium was aspirated, and the cells were rinsed once with PBS (100 µL/well); and the PBS was removed immediately. • b) The cells were digested by adding 25 µL of trypsin and incubated at 37°C for 3 minutes, and then the digestion was terminated by adding 175 µL/well of McCoy's 5A medium containing 10% FBS. • c) The cells were mixed thoroughly using a pipette, and re-plated at 1 : 20; and specifically, 10 µL of the cell suspension was aspirated to a new 96-well plate (pre-filled with 40 µL of McCoy's 5A medium containing 10% FBS. • d) Compounds were prepared and added according to steps a) to c) in Section 2, with 50 µL added per well. • e) The compound-treated cell plate was placed in a 37°C, 5% carbon dioxide incubator and incubated. • 4.”

T1 sequence (O14744 whole entry): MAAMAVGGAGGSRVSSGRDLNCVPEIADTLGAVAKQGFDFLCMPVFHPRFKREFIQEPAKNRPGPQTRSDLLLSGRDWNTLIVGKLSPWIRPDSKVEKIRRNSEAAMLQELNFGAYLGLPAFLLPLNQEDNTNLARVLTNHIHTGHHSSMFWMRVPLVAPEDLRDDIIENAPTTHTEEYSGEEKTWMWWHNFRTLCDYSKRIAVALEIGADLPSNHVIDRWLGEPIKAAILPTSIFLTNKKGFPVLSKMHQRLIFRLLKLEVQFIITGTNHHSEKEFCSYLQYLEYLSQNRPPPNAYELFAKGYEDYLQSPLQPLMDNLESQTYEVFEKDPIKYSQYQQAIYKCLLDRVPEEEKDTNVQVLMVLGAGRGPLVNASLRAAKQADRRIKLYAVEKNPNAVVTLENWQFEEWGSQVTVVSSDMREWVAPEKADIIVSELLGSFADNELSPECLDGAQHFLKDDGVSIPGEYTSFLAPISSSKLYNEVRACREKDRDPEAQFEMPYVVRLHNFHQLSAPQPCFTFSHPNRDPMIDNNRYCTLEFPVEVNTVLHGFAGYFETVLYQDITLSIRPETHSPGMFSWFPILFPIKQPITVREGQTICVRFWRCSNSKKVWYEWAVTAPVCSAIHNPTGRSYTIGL
T1 sequence (Q9BQA1 whole entry partner): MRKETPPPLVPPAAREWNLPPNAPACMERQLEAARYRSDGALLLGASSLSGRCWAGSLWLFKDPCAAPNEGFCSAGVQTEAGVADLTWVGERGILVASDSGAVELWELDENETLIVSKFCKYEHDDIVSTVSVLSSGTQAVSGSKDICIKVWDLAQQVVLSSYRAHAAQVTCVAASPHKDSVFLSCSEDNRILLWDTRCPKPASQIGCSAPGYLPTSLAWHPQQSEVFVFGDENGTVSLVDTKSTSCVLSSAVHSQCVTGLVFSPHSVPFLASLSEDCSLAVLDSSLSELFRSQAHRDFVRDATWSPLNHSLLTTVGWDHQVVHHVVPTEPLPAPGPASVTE

| Compound | IC50 ([1]; Homo sapiens, HCT-116, 240 h) [nM] | IC50 [2] [nM] | IC50 ([3]; Homo sapiens, HCT-116, 240 h) [nM] | IC50 [1] [nM] | IC50 [3] [nM] |
| --- | --- | --- | --- | --- | --- |
| [2H]C([2H])([2H])n1ncc(-c2ccc3c(=O)[nH]nc(CN)c3c2)c1-c1c(F)cc2c(c1C#N)O[C@@H]1CC[C@@H]1O2 (single isomer, unassigned) [Compound 2-p2] | 13.5 | 7.01 | 2370 |  |  |
| [2H]C([2H])([2H])n1ncc(-c2ccc3c(=O)[nH]nc(CN)c3c2)c1-c1c(F)c(Cl)c2c(c1C#N)O[C@H]1CC[C@H]1O2 (atropisomer, axis not shown; (M)) [Compound 11-p3, (M)-(2aS,8aR)-5-(4-(4-(aminomethyl)-1-oxo-1,2-dihydrophthalazin-6-yl)-1-(methyl-d3)-1H-pyrazol-5-yl)-7-chloro-6-fluoro-1,2,2a,8a-tetrahydrobenzo[b]cyclobuta[e][1,4]dioxine-4-carbonitrile] | 4.6 | 5.4 |  |  |  |
| Cn1ncc(-c2ccc3c(=O)[nH]nc(CN)c3c2)c1-c1c(F)cc2c(c1C#N)O[C@@H]1CC[C@@H]1O2 (atropisomer, axis not shown; (M)) [Compound 1-p2, (M)-(2aR,8aS)-5-(4-(4-(aminomethyl)-1-oxo-1,2-dihydrophthalazin-6-yl)-1-methyl-1H-pyrazol-5-yl)-6-fluoro-1,2,2a,8a-tetrahydrobenzo[b]cyclobuta[e][1,4]dioxine-4-carbonitrile] |  |  |  | 13.3 | 2350 |
